Laboratory results as given in paper PMC11106739, “Discovery and Derivatization of Tridecaptin Antibiotics with Altered Host Specificity and Enhanced Bioactivity” (ACS Chemical Biology, 2024).
Values after ≈ are worked out from the molar mass of the structure shown. Where a SMILES comes first, the peptide text is derived from it. [ ]: non-standard residue; d: D form. The star is where a group is joined. d(aIle) = CC[C@H](C)[C@@H](N)C(=O)O; dDab = NCC[C@@H](N)C(=O)O; Octanoyl = CCCCCCCC(=O)*; Dab = NCC[C@H](N)C(=O)O

How the values were obtained:
K. pneumoniae ATCC 13883 = format: cell-based, Klebsiella pneumoniae; settings: ATCC 13883, 20 h
Experimental: (§1) All minimum inhibitory concentrations (MICs) were determined according to the Clinical and Standards Laboratory Institute (CLSI) guidelines. In brief, agar plates were inoculated from glycerol stocks and incubated overnight at 35 °C. Peptide DMSO stocks were dispensed into 96-well round-bottom plates using a TECAN D300e dispenser. Colistin sulfate (Sigma-Aldrich) was dissolved in water and serially diluted in a cation-adjusted Mueller Hinton broth (10 μL per well). Final concentrations of the test compounds were 0.06 to 64 μg/mL. Inocula were prepared by direct colony suspension in NaCl at 0.5 MacFarland, which was further diluted 200-fold in cation-adjusted Mueller Hinton broth for a target inoculum of 2 × 10^5 colony forming units (CFUs)/mL. 100 μL portion of the prepared inoculum was added to each well of the prepared plates containing the test compounds. Plates were sealed with parafilm and incubated for 20 h at 35 °C. Images of all plates were recorded, and MIC was assessed visually.

K. pneumoniae 1228586 = format: cell-based, Klebsiella pneumoniae; settings: 1228586, 20 h
Experimental: as §1

K. pneumoniae 1227947 = format: cell-based, Klebsiella pneumoniae; settings: 1227947, 20 h
Experimental: as §1

[1] = system: Gram-negative ESKAPE pathogens; format: cell-based; settings: 20 h
Experimental: as §1

HepG2 cells = assay: Cytotoxicity determination (CellTiter-Glo); format: cell-based; settings: HepG2, medium without serum, 24 h, normalization to the untreated control, 1 to 128 μg/mL tested
Experimental: HepG2 cells were grown in EMEM (Sigma) supplemented with 2 mM glutamine and 10% fetal bovine serum (Fisher) at 37 °C, 5% CO2. 20′000 cells per well were seeded into clear tissue culture-treated 96-well plates and incubated for 24 h. Peptides, dissolved in DMSO, were dispensed into 96 deep well plates (TECAN D300e dispenser) and diluted to a final concentration of 1 to 128 μg/mL using fresh medium without serum. The next day, the old media were removed from the cells, and 200 μL of the prepared compound dilutions was added per well. Plates were incubated for another 24 h before assessing the cell viability using the CellTiter-Glo kit (Promega) according to the manufacturer’s protocol. IC50s were calculated after normalization to the untreated control.

P. aeruginosa PAO1 = format: cell-based, Pseudomonas aeruginosa; settings: PAO1, 20 h
Experimental: as §1

P. aeruginosa 1218019 = format: cell-based, Pseudomonas aeruginosa; settings: 1218019, 20 h
Experimental: as §1

P. aeruginosa 1226072 = format: cell-based, Pseudomonas aeruginosa; settings: 1226072, 20 h
Experimental: as §1

E. faecium ATCC 51559 = format: cell-based, Enterococcus faecium; settings: ATCC 51559, 20 h
Experimental: as §1

E. faecium IHMA 890472 = format: cell-based, Enterococcus faecium; settings: IHMA 890472, 20 h
Experimental: as §1

[2] = system: Gram-positive bacteria (Staphylococcus aureus, Enterococcus faecalis, Enterococcus faecium); assay: MIC, summary over Gram-positive strains; format: cell-based; settings: at a concentration of 64 μg/mL; summary of Table 2
Experimental: as §1

Rabbit red blood cells = assay: Hemolysis assay; format: cell-based; settings: rabbit red blood cells in PBS, 37 °C, 1 h, absorbance at 405 nm, normalization to the Triton X-100 control; 0.25 to 128 μg/mL tested
Experimental: Peptides, dissolved in DMSO, were dispensed into 96-well round-bottom microplates using a TECAN D300e dispenser and subsequently diluted with 100 μL of PBS. PBS or 2% Triton X-100 was used as negative and positive controls, respectively. Rabbit red blood cells (BioConcept) were diluted in PBS to a final concentration of 2%, and 100 μL was added to each well of the prepared 96-well plates. The final concentration of the test compounds was 0.25 to 128 μg/mL. Plates were incubated at 37 °C for 1 h and afterward subjected to centrifugation at 1000g for 5 min. Then, 30 μL of supernatant was transferred to a new round-bottom plate, and absorbance was measured at 405 nm (TECAN Infinite F200). EC50s were calculated after blank subtraction and normalization to the Triton control.

A. baumannii ATCC 17978 = format: cell-based, Acinetobacter baumannii; settings: ATCC 17978, 20 h
Experimental: as §1

A. baumannii IHMA 777621 = format: cell-based, Acinetobacter baumannii; settings: IHMA 777621, 20 h
Experimental: as §1

A. baumannii HUMC1 = format: cell-based, Acinetobacter baumannii; settings: HUMC1, 20 h
Experimental: as §1

E. coli ATCC 25922 = format: cell-based, Escherichia coli; settings: ATCC 25922, 20 h
Experimental: as §1

E. coli 1220120 = format: cell-based, Escherichia coli; settings: 1220120, 20 h
Experimental: as §1

E. coli 1214245 = format: cell-based, Escherichia coli; settings: 1214245, 20 h
Experimental: as §1

S. aureus 1126387 = format: cell-based, Staphylococcus aureus; settings: 1126387, 20 h
Experimental: as §1

S. aureus UAMS-1625 = format: cell-based, Staphylococcus aureus; settings: S. aureus UAMS-1625 (BV18); CLSI broth dilution, cation-adjusted Mueller Hinton broth, 20 h, 35 °C, read visually
Experimental: as §1

S. aureus ATCC 29213 = format: cell-based, Staphylococcus aureus; settings: ATCC 29213, 20 h
Experimental: as §1

E. faecalis ATCC 29212 = format: cell-based, Enterococcus faecalis; settings: ATCC 29212, 20 h
Experimental: as §1

ATCC 25922 = format: cell-based, Enterococcus faecalis; settings: ATCC 25922, 20 h
Experimental: as §1

Compound: CCCCCCCC(=O)N[C@@H](C(=O)N[C@H](CCN)C(=O)NCC(=O)N[C@H](CO)C(=O)N[C@H](Cc1c[nH]c2ccccc12)C(=O)N[C@@H](CO)C(=O)N[C@@H](CCN)C(=O)N[C@H](CCN)C(=O)NCC(=O)N[C@@H](CCC(=O)O)C(=O)N[C@H](C(=O)N[C@@H](C(=O)N[C@@H](C)C(=O)O)[C@@H](C)CC)C(C)C)C(C)C [Oct-Gly9] (Octanoyl-[dV][dDab]G[dS][dW]S[Dab][dDab]GEV[d(aIle)]A-OH)
- MIC (K. pneumoniae ATCC 13883): 16 µg/mL (≈ 11.2 µM)
- MIC (K. pneumoniae 1228586): 8 µg/mL (≈ 5.59 µM)
- MIC (K. pneumoniae 1227947): 32 µg/mL (≈ 22.4 µM)
- MICs, range over Gram-negative pathogens [1]: 8 to 64 µg/mL
- IC50 on HepG2 w/o FCS (HepG2 cells): >128 µg/mL
- MIC (P. aeruginosa PAO1): 64 µg/mL (≈ 44.7 µM)
- MIC (P. aeruginosa 1218019): >64 µg/mL
- MIC (P. aeruginosa 1226072): 32 µg/mL (≈ 22.4 µM)
- MIC (E. faecium ATCC 51559): >64 µg/mL
- MIC (E. faecium IHMA 890472): >64 µg/mL
- antibacterial activity against Gram-positive bacteria [2]: no antibacterial activity
- Hemolysis EC50 (Rabbit red blood cells): >128 µg/mL
- MIC (A. baumannii ATCC 17978): >64 µg/mL
- MIC (A. baumannii IHMA 777621): >64 µg/mL
- MIC (A. baumannii HUMC1): >64 µg/mL
- MIC (E. coli ATCC 25922): 16 µg/mL (≈ 11.2 µM)
- MIC (E. coli 1220120): 16 µg/mL (≈ 11.2 µM)
- MIC (E. coli 1214245): 16 µg/mL (≈ 11.2 µM)
- MIC (S. aureus 1126387): >64 µg/mL
- MIC (S. aureus UAMS-1625): >64 µg/mL
- MIC (S. aureus ATCC 29213): >64 µg/mL
- MIC (E. faecalis ATCC 29212): >64 µg/mL
- MIC (ATCC 25922): >64 µg/mL

Compound: CCCCCCCC(=O)N[C@@H](C(=O)N[C@H](CCN)C(=O)NCC(=O)N[C@H](CO)C(=O)N[C@H](Cc1c[nH]c2ccccc12)C(=O)N[C@@H](CO)C(=O)N[C@@H](CCN)C(=O)N[C@H](CCN)C(=O)N[C@@H](CO)C(=O)N[C@@H](CCC(=O)O)C(=O)N[C@H](C(=O)N[C@@H](C(=O)N[C@@H](C)C(=O)O)[C@@H](C)CC)C(C)C)C(C)C [Oct-Ser9] (Octanoyl-[dV][dDab]G[dS][dW]S[Dab][dDab]SEV[d(aIle)]A-OH)
- MIC (K. pneumoniae ATCC 13883): 64 µg/mL (≈ 43.8 µM)
- MIC (K. pneumoniae 1228586): 8 µg/mL (≈ 5.48 µM)
- MIC (K. pneumoniae 1227947): >64 µg/mL
- MICs, range over Gram-negative pathogens [1]: 8 to 64 µg/mL
- IC50 on HepG2 w/o FCS (HepG2 cells): >128 µg/mL
- MIC (P. aeruginosa PAO1): >64 µg/mL
- MIC (P. aeruginosa 1218019): 32 µg/mL (≈ 21.9 µM)
- MIC (P. aeruginosa 1226072): 32 µg/mL (≈ 21.9 µM)
- MIC (E. faecium ATCC 51559): >64 µg/mL
- MIC (E. faecium IHMA 890472): >64 µg/mL
- antibacterial activity against Gram-positive bacteria [2]: no antibacterial activity
- Hemolysis EC50 (Rabbit red blood cells): >128 µg/mL
- MIC (A. baumannii ATCC 17978): >64 µg/mL
- MIC (A. baumannii IHMA 777621): >64 µg/mL
- MIC (A. baumannii HUMC1): >64 µg/mL
- MIC (E. coli ATCC 25922): 32 µg/mL (≈ 21.9 µM)
- MIC (E. coli 1220120): 32 µg/mL (≈ 21.9 µM)
- MIC (E. coli 1214245): 64 µg/mL (≈ 43.8 µM)
- MIC (S. aureus 1126387): >64 µg/mL
- MIC (S. aureus UAMS-1625): >64 µg/mL
- MIC (S. aureus ATCC 29213): >64 µg/mL
- MIC (E. faecalis ATCC 29212): >64 µg/mL
- MIC (ATCC 25922): >64 µg/mL
